Laboratory results reported in publication PMC4939597, “Mechanism for insulin-like peptide 5 distinguishing the homologous relaxin family peptide receptor 3 and 4” (Scientific Reports, 2016).
Each block holds one molecule with its values, some of them ahead of it. No end group written: not given here.

Tests used:
human RXFP4 [1] = biological target: T1, human RXFP4 (Homo sapiens, UniProt Q8TDU9); assay: Receptor activation assay, CRE-controlled NanoLuc reporter; type: cell-based
T1 construct: expressed in transfected cells; host or cells: HEK293T
Method: (§1) Figure 4 Receptor activation activities of the mature INSL5 and R3/I5 mutants towards RXFP3 and RXFP4. HEK293T cells transiently cotransfected by human RXFP3 or human RXFP4 and a CRE-controlled NanoLuc reporter were used for the activation assays. The measured data were expressed as mean ± SE (n = 3) and fitted to sigmoidal or linear curves using the software SigmaPlot 10.0.
(§2) The receptor activation assays of the mature INSL5 and R3/I5 mutants were carried out using a cAMP-response element (CRE)-controlled NanoLuc reporter according to our previous procedure. Briefly, HEK293T cells were transiently cotransfected with the expression construct of human RXFP3 or human RXFP4 and the CRE-controlled NanoLuc reporter vector pNL1.2/CRE. Next day, the transfected cells were trypsinised, seeded into a 96-well plate, and continuously cultured for 24–36 h to ~90% confluence. To start activation assay, the medium was removed and the activation solution (serum-free DMEM medium plus 1% bovine serum albumin) containing 1.0 μM of forskolin and varied concentrations of peptide was added (100 μl/well). After being continuously cultured at 37 °C for 4 h, the activation solution was removed and the cells were lysed by lysis solution (100 μl/well, from Promega). The cell lysate was then transferred to a white opaque 96-well plate (50 μl/well), mixed with the freshly diluted substrate (50 μl/well), and bioluminescence was immediately measured on a SpectraMax M5 plate reader (Molecular Devices) using the luminescence mode. The measured bioluminescence data were expressed as mean ± SE (n = 3) and fitted to sigmoidal or linear curves using the SigmaPlot10.0 software.

human RXFP3 [2] = biological target: T2, human RXFP3 (Homo sapiens, UniProt Q9NSD7); assay: as above; type: cell-based; settings: for fold lower activation potency towards RXFP3 compared with wild-type R3/I5: lower than wild-type R3/I5
T2 construct: expressed in transfected cells; host or cells: HEK293T
T2 sequence (Q9NSD7 1-469): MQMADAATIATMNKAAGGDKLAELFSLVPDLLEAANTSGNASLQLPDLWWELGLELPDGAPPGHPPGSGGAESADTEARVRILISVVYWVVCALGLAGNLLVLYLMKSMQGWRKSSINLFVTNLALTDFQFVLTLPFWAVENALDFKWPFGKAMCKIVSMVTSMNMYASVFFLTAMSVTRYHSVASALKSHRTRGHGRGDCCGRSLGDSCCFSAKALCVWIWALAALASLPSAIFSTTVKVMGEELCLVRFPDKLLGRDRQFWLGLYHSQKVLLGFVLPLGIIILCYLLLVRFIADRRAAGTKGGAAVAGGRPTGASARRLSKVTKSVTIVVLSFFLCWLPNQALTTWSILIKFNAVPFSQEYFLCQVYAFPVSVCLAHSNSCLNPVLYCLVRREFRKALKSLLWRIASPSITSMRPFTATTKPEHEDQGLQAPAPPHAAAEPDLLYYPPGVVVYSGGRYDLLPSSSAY
Method: as §1, §2

human RXFP4 [3] = biological target: T1, human RXFP4; assay: Receptor binding assay, competition with NanoLuc-conjugated R3/I5 tracer
Method: (§3) Figure 3 Receptor binding activities of the mature INSL5 and R3/I5 mutants towards RXFP3 and RXFP4. A NanoLuc-conjugated R3/I5 peptide was used as tracer and HEK293T cells transiently overexpressing human RXFP3 or human RXFP4 were used as receptor source. The tracer concentration used in these assays was 0.5 nM. The nonspecific binding was obtained by competition with 1.0 μM of relaxin-3. The measured data were expressed as mean ± SE (n = 3) and fitted to sigmoidal curves using the software SigmaPlot 10.0.
(§4) The receptor binding assays of the mature INSL5 and R3/I5 mutants were carried out using a NanoLuc-conjugated R3/I5 peptide as tracer and the human embryonic kidney (HEK) 293T cells transiently overexpressing human RXFP3 or human RXFP4 as receptor source. Nonspecific binding was obtained by competition with 1.0 μM of human relaxin-3. Briefly, HEK293T cells were transiently transfected with the expression construct of human RXFP3 or human RXFP4. Next day, the transfected cells were trypsinised, seeded into a 96-well plate, and continuously cultured for 24–36 h to confluence. To start binding assay, the medium was removed and the binding solution (serum-free DMEM medium plus 1% bovine serum albumin) containing 0.5 nM of the NanoLuc-conjugated R3/I5 tracer and varied concentrations of competitor was added (100 μl/well). After incubation at 21 °C for 2 h, the binding solution was removed and the cells were washed twice by ice-cold phosphate-buffered saline (200 μl/well for each wash). Thereafter, the cells were lysed by lysis solution (100 μl/well, from Promega, Madison, WI, USA) and the cell lysate was transferred to a white opaque 96-well plate (50 μl/well). After mixing with the freshly diluted substrate (50 μl/well), bioluminescence was immediately measured on a SpectraMax M5 plate reader (Molecular Devices, Sunnyvale, CA, USA) using the luminescence mode. The measured bioluminescence data were expressed as mean ± SE (n = 3) and fitted to sigmoidal curves using the SigmaPlot10.0 software.

human RXFP3 [4] = biological target: T2, human RXFP3; assay: as above
Method: as §3, §4

T1 sequence (Q8TDU9 whole entry): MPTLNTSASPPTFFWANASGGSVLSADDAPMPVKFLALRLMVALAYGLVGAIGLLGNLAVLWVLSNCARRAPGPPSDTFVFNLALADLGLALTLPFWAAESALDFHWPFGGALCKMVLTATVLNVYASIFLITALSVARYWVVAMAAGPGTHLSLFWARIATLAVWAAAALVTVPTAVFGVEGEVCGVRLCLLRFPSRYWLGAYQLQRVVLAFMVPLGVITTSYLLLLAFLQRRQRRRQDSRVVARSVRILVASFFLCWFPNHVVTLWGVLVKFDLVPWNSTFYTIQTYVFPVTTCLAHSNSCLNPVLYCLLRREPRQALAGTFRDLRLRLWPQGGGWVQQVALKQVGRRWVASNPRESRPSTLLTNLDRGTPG

Molecule: CC[C@H](C)[C@@H]1NC(=O)[C@H](Cc2ccccc2)NC(=O)[C@H](CCC(=O)O)NC(=O)[C@H](CCCNC(=N)N)NC(=O)CNC(=O)[C@@H](NC(=O)[C@H](CC(C)C)NC(=O)[C@H](CCCCN)NC(=O)[C@@H](NC(=O)CNC(=O)[C@H](Cc2ccc(O)cc2)NC(=O)[C@@H]2CCCN2C(=O)[C@H](C)NC(=O)[C@H](C)NC(=O)[C@@H](N)CCCNC(=N)N)C(C)C)CSSC[C@@H]2NC(=O)[C@@H](NC(=O)[C@H](CC(C)C)NC(=O)[C@@H](NC(=O)[C@H](CCC(N)=O)NC(=O)[C@H](CC(C)C)NC(=O)[C@H](CC(=O)O)NC(=O)[C@@H](N)CCC(N)=O)[C@@H](C)O)CSSC[C@H](NC(=O)CNC(=O)[C@H](CC(=O)O)NC(=O)[C@H]([C@@H](C)O)NC2=O)C(=O)N[C@@H](CO)C(=O)N[C@@H](CCSC)C(=O)N[C@@H]([C@@H](C)O)C(=O)N[C@@H](CC(=O)O)C(=O)N[C@@H](CC(C)C)C(=O)N[C@@H](CO)C(=O)N[C@@H](C)C(=O)N[C@@H](CC(C)C)C(=O)N[C@H](C(=O)O)CSSC[C@@H](C(=O)NCC(=O)NCC(=O)N[C@@H](CO)C(=O)N[C@@H](CCCNC(=N)N)C(=O)N[C@@H](Cc2c[nH]c3ccccc23)C(=O)O)NC(=O)[C@H]([C@@H](C)O)NC(=O)[C@H](Cc2ccc(O)cc2)NC(=O)[C@H]([C@@H](C)CC)NC(=O)[C@H](C(C)C)NC(=O)[C@H](C)NC(=O)[C@H](CCCNC(=N)N)NC1=O [[F(B20)Y]R3/I5]
- fold lower activation potency towards RXFP4 than wild-type R3/I5 (human RXFP4 [1]; lower than wild-type R3/I5): ~ 15 fold
- fold lower activation potency towards RXFP3 compared with wild-type R3/I5 (human RXFP3 [2]): ~ 3 fold
- fold lower binding potency towards RXFP4 compared with wild-type R3/I5 (human RXFP4 [3]; lower than wild-type R3/I5): ~ 3 fold

- pEC50 RXFP4 (human RXFP4 [1]; HEK293T cells cotransfected with human RXFP4 and CRE-controlled NanoLuc reporter, 1.0 μM forskolin, 37 °C, 4 h, mean ± SE, n = 3, SEM): 9.31 ± 0.08
- activation potency towards RXFP3, result in words (human RXFP3 [2]; CRE-controlled NanoLuc reporter, HEK293T cells, human RXFP3): no detectable activation potency
- pIC50 RXFP4 (human RXFP4 [3]; HEK293T cells transiently overexpressing human RXFP4, 0.5 nM NanoLuc-conjugated R3/I5 tracer, 21 °C, 2 h, mean ± SE, n = 3, SEM): 7.43 ± 0.05
- pIC50 RXFP3 (human RXFP3 [4]; HEK293T cells transiently overexpressing human RXFP3, 0.5 nM NanoLuc-conjugated R3/I5 tracer, 21 °C, 2 h, mean ± SE, n = 3, SEM): 7.07 ± 0.04
Molecule: [I(B18)T]INSL5: recombinant mature two-chain INSL5 mutant (Insulin-like peptide INSL5 B … KESVRLCGLEYIRTVIYTCASSRW; Insulin-like peptide INSL5 A … QDLQTLCCTDGCSMTDLSALC; ends and bridges not checked; cysteine pairing not given here; UniProt Q9Y5Q6 23-46; Q9Y5Q6 115-135, looked up, variant I18T)

Molecule: CC[C@H](C)[C@@H]1NC(=O)[C@H](Cc2ccccc2)NC(=O)[C@H](CCC(=O)O)NC(=O)[C@H](CC(C)C)NC(=O)CNC(=O)[C@@H](NC(=O)[C@H](CC(C)C)NC(=O)[C@H](CCCCN)NC(=O)[C@@H](NC(=O)CNC(=O)[C@H](Cc2ccc(O)cc2)NC(=O)[C@@H]2CCCN2C(=O)[C@H](C)NC(=O)[C@H](C)NC(=O)[C@@H](N)CCCNC(=N)N)C(C)C)CSSC[C@@H]2NC(=O)[C@@H](NC(=O)[C@H](CC(C)C)NC(=O)[C@@H](NC(=O)[C@H](CCC(N)=O)NC(=O)[C@H](CC(C)C)NC(=O)[C@H](CC(=O)O)NC(=O)[C@@H](N)CCC(N)=O)[C@@H](C)O)CSSC[C@H](NC(=O)CNC(=O)[C@H](CC(=O)O)NC(=O)[C@H]([C@@H](C)O)NC2=O)C(=O)N[C@@H](CO)C(=O)N[C@@H](CCSC)C(=O)N[C@@H]([C@@H](C)O)C(=O)N[C@@H](CC(=O)O)C(=O)N[C@@H](CC(C)C)C(=O)N[C@@H](CO)C(=O)N[C@@H](C)C(=O)N[C@@H](CC(C)C)C(=O)N[C@H](C(=O)O)CSSC[C@@H](C(=O)NCC(=O)NCC(=O)N[C@@H](CO)C(=O)N[C@@H](CCCNC(=N)N)C(=O)N[C@@H](Cc2c[nH]c3ccccc23)C(=O)O)NC(=O)[C@H]([C@@H](C)O)NC(=O)[C@H](Cc2ccccc2)NC(=O)[C@H]([C@@H](C)CC)NC(=O)[C@H](C(C)C)NC(=O)[C@H](C)NC(=O)[C@H](CCCNC(=N)N)NC1=O [[R(B12)L]R3/I5]
- fold lower activation potency towards RXFP3 compared with wild-type R3/I5 (human RXFP3 [2]): ~ 1600 fold
- fold lower binding potency towards RXFP3 compared with wild-type R3/I5 (human RXFP3 [4]; lower than wild-type R3/I5): ~ 110 fold

Molecule: CC[C@H](C)[C@@H]1NC(=O)[C@H](Cc2ccccc2)NC(=O)[C@H](CCC(=O)O)NC(=O)[C@H](CCCNC(=N)N)NC(=O)CNC(=O)[C@@H](NC(=O)[C@H](CC(C)C)NC(=O)[C@H](CCCCN)NC(=O)[C@@H](NC(=O)CNC(=O)[C@H](CCC(=O)O)NC(=O)[C@@H]2CCCN2C(=O)[C@H](C)NC(=O)[C@H](C)NC(=O)[C@@H](N)CCCNC(=N)N)C(C)C)CSSC[C@@H]2NC(=O)[C@@H](NC(=O)[C@H](CC(C)C)NC(=O)[C@@H](NC(=O)[C@H](CCC(N)=O)NC(=O)[C@H](CC(C)C)NC(=O)[C@H](CC(=O)O)NC(=O)[C@@H](N)CCC(N)=O)[C@@H](C)O)CSSC[C@H](NC(=O)CNC(=O)[C@H](CC(=O)O)NC(=O)[C@H]([C@@H](C)O)NC2=O)C(=O)N[C@@H](CO)C(=O)N[C@@H](CCSC)C(=O)N[C@@H]([C@@H](C)O)C(=O)N[C@@H](CC(=O)O)C(=O)N[C@@H](CC(C)C)C(=O)N[C@@H](CO)C(=O)N[C@@H](C)C(=O)N[C@@H](CC(C)C)C(=O)N[C@H](C(=O)O)CSSC[C@@H](C(=O)NCC(=O)NCC(=O)N[C@@H](CO)C(=O)N[C@@H](CCCNC(=N)N)C(=O)N[C@@H](Cc2c[nH]c3ccccc23)C(=O)O)NC(=O)[C@H]([C@@H](C)O)NC(=O)[C@H](Cc2ccccc2)NC(=O)[C@H]([C@@H](C)CC)NC(=O)[C@H](C(C)C)NC(=O)[C@H](C)NC(=O)[C@H](CCCNC(=N)N)NC1=O [[Y(B5)E]R3/I5]
- fold lower activation potency towards RXFP3 compared with wild-type R3/I5 (human RXFP3 [2]): ~ 6 fold

Molecule: CC[C@H](C)[C@@H]1NC(=O)[C@H](Cc2ccccc2)NC(=O)[C@H]([C@@H](C)CC)NC(=O)[C@H](C(C)C)NC(=O)[C@H]([C@@H](C)O)NC(=O)[C@H](CCCNC(=N)N)NC(=O)[C@H]([C@@H](C)CC)NC(=O)[C@H](Cc2ccc(O)cc2)NC(=O)[C@H](CCC(=O)O)NC(=O)[C@H](CCCNC(=N)N)NC(=O)CNC(=O)[C@@H](NC(=O)[C@H](CC(C)C)NC(=O)[C@H](CCCNC(=N)N)NC(=O)[C@@H](NC(=O)[C@H](CO)NC(=O)[C@H](CCC(=O)O)NC(=O)[C@@H](N)CCCCN)C(C)C)CSSC[C@@H]2NC(=O)[C@@H](NC(=O)[C@H](CC(C)C)NC(=O)[C@@H](NC(=O)[C@H](CCC(N)=O)NC(=O)[C@H](CC(C)C)NC(=O)[C@H](CC(=O)O)NC(=O)[C@@H](N)CCC(N)=O)[C@@H](C)O)CSSC[C@H](NC(=O)CNC(=O)[C@H](CC(=O)O)NC(=O)[C@H]([C@@H](C)O)NC2=O)C(=O)N[C@@H](CO)C(=O)N[C@@H](CCSC)C(=O)N[C@@H]([C@@H](C)O)C(=O)N[C@@H](CC(=O)O)C(=O)N[C@@H](CC(C)C)C(=O)N[C@@H](CO)C(=O)N[C@@H](C)C(=O)N[C@@H](CC(C)C)C(=O)N[C@H](C(=O)O)CSSC[C@@H](C(=O)NCC(=O)NCC(=O)N[C@@H](CO)C(=O)N[C@@H](CCCNC(=N)N)C(=O)N[C@@H](Cc2c[nH]c3ccccc23)C(=O)O)NC1=O [[L(B9)R,Y(B17)F,A(B20)G,S(B21)G]INSL5]
- fold lower activation potency towards RXFP3 than relaxin-3 (human RXFP3 [2]; lower than relaxin-3): ~ 100 fold
